Experimental data from PubChem BioAssay (NCI).
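Compound exposure: 48 hours, 5 concentrations, 96-well plates. At the TGI there is no net growth.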

Legend:
Assay in all cases: DTP human tumour cell line panel, 48 h
A549 NSCLC = system: A549 NSCLC
CAKI-1 renal = system: CAKI-1 renal
COLO 205 colon = system: COLO 205 colon
HT29 colon = system: HT29 colon
MDA-MB-231 breast = system: MDA-MB-231 breast
OVCAR-5 ovarian = system: OVCAR-5 ovarian
PC-3 prostate = system: PC-3 prostate
SF-295 CNS = system: SF-295 CNS
SK-MEL-28 melanoma = system: SK-MEL-28 melanoma
SW-620 colon = system: SW-620 colon
U251 CNS = system: U251 CNS

SMILES	TGI (A549 NSCLC) [µM]	TGI (CAKI-1 renal) [µM]	TGI (COLO 205 colon) [µM]	TGI (HT29 colon) [µM]	TGI (MDA-MB-231 breast) [µM]	TGI (OVCAR-5 ovarian) [µM]	TGI (PC-3 prostate) [µM]	TGI (SF-295 CNS) [µM]	TGI (SK-MEL-28 melanoma) [µM]	TGI (SW-620 colon) [µM]	TGI (U251 CNS) [µM]
Cc1nc2cc(C(F)(F)F)ccc2[nH]c1=O	> 100	> 100	> 100	> 100	> 100	> 100	> 100	> 100	> 100	> 100	> 100
CCOC(=O)c1cnc2[nH]ccn2c1=O	> 10	> 10	> 10	> 10	> 10	> 10	> 10	> 10	> 10	> 10	> 10
Cc1cccc(C[C@@]2(SCc3ccccc3)C(C)(C)[C@@H]3CC[C@@]2(C)C3)n1	51.1	48.1	29	31.9	28.5	34.9	35.7	29.1	45.3	30.5	30.2
O=C1/C(=C/c2ccc(F)cc2)CNC/C1=C\c1ccc(F)cc1	18.1	3.4	3.42	7.4	13.5	8.99	4.41	6.19	2.68	0.754	1.39
N#CC(C#N)=C1CCCS(=O)(=O)c2ccccc21	> 100	> 100	> 100	> 100	> 100	> 100	> 100	> 100	> 100	> 100	> 100
COC(=O)CCCC(=O)C(=Nc1c(Cl)cccc1Cl)NNc1ccc(Cl)cc1	> 100	> 100	82.4	> 100	> 100	> 100	> 100	> 100	> 100	> 100	> 100
CC1=CC=CC(C)(C)CC1(O[Si](C)(C)C)C(F)(F)F (stereo not drawn)	> 100	> 100	> 100	> 100	> 100	> 100	> 100	> 100	> 100	> 100	> 100
O=C(O[C@H](/C=C/c1ccccc1)P1(=O)N(Cc2ccccc2)[C@@H]2CCCC[C@H]2N1Cc1ccccc1)c1ccccc1	> 100	6.93	5.08	18.4	21	> 100	> 100	> 100	> 100	> 100	31.3
O=C1OC[C@@H]2Cc3c([nH]c4ccccc34)[C@@H](c3ccc(O)cc3)N12	75.8	97.5	40.9	98.4	> 83.4	> 100	> 100	> 83.4	> 100	> 100	> 100
CCOP(=O)(OCC)/C(F)=C/c1ccccc1	> 100	> 100	> 100	> 100	> 100	> 100	> 100	> 100	> 100	> 100	> 100
CN1C(=O)CN(NC(=O)C2=C(O)c3ccc(Br)cc3S(=O)(=O)N2)C1=S	> 100	> 100	> 100	> 100	> 100	> 100	> 100	> 100	> 100	> 100	> 100
COc1ccc(NC2Oc3cc4c(cc3C(c3cc(OC)c(OC)c(OC)c3)C2C)OCO4)cc1 (stereo not drawn)	> 61.9	> 91.5	2.96	> 100	> 57.4	> 100	> 100	0.971	> 100	> 100	11.6
CN1CN(c2ccccc2)C2(CCN(CCCC3(c4cccs4)OCCO3)CC2)C1=O	> 100	> 100	> 100	> 100	> 100	> 100	> 100	> 100	> 100	> 100	> 100
